The record followed here is patent US20250179103A1, “6-OXODECAHYDROPYRROLO[1,2-A][1,5]DIAZOCINE AND 6-OXODECAHYDRO-4H-PYRROLO[2,1-D][1,5]THIAZOCINE DERIVATIVES AS STAT3 AND STAT6 MODULATORS FOR THE TREATMENT OF CANCER AND INFLAMMATORY CONDITIONS” (Recludix Pharma, Inc., priority 2022, published 2025).

Assay [1] concerns the target T1, Recombinant STAT6 protein (STAT6(W123-T658)) (Homo sapiens, UniProt P42226).
T1 construct: Recombinant STAT6 protein (STAT6(W123-T658))
T1 sequence (P42226 123-658): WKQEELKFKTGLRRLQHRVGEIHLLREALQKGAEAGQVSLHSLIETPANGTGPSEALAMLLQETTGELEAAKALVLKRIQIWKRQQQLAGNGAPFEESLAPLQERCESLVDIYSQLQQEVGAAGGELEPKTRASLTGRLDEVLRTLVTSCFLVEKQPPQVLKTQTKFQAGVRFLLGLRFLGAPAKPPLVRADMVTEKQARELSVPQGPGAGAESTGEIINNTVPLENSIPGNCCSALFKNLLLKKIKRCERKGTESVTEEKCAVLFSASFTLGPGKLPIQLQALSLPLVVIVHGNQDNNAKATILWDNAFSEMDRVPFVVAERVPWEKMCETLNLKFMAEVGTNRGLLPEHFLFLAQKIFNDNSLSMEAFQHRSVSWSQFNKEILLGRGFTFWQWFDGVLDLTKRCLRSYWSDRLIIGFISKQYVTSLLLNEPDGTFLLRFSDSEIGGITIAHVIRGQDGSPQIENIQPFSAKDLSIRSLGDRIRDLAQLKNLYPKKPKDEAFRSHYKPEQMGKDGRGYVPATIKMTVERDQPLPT
Kind of assay: STAT6 Fluorescence Polarization (FP) Assay. It counts as binding. The note with it: STAT6(W123-T658) 250 nM, probe 5-FAM-ApYKPFQDLI-NH2 2 nM, 45-minute incubation. The procedure, abridged: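 Displacement of a fluorescent phosphotyrosine peptide (5-FAM-ApYKPFQDLI-NH2, 2 nM) from STAT6(W123-T658) (250 nM), 1% DMSO, pH 7.4 HEPES buffer. After 45 min at room temperature, polarization (mP) was plotted versus log compound concentration and fitted by nonlinear regression to give IC50.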
In general terms: Fluorescence polarisation rises when a labelled molecule tumbles more slowly, as on binding a larger partner.

The target in assay [2] is T2, Recombinant STAT3 protein (STAT3(G127-I722)) (Homo sapiens, UniProt P40763).
T2 construct: Recombinant STAT3 protein (STAT3(G127-I722))
Kind of assay: STAT3 Fluorescence Polarization (FP) Assay. Type of assay: binding. The note with it: STAT3(G127-I722) 25 nM, probe 5-FAM-GpYLPQTV-NH2 2 nM, 45-minute incubation. The procedure, abridged:
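Fluorescence polarization after a 45-min room-temperature incubation measured compound displacement of a 2 nM fluorescein-labelled phosphotyrosine peptide (5-FAM-GpYLPQTV-NH2) from 25 nM recombinant STAT3(G127-I722). Buffer was 10 mM HEPES pH 7.4 with 1% DMSO final. IC50s were fitted by nonlinear regression of mP against log concentration.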

One may read the IC50 as the midpoint of a concentration-inhibition curve.

T2 sequence (P40763 127-722): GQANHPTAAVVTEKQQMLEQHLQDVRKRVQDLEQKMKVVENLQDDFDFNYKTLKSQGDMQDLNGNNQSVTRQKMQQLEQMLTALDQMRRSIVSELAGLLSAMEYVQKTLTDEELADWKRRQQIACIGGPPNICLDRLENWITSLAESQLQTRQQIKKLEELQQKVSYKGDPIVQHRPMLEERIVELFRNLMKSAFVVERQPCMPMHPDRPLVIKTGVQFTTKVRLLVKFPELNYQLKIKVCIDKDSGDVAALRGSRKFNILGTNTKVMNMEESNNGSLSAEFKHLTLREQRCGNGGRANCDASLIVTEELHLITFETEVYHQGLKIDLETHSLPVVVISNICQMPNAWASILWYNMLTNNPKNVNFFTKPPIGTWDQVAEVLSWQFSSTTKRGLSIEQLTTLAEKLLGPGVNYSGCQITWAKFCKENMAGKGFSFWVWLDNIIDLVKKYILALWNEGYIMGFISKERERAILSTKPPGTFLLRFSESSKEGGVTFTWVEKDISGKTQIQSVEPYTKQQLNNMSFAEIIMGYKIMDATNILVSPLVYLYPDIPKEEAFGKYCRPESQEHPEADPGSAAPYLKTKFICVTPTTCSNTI

Take `O=C(N[C@H]1CN(CC(F)(F)F)CC[C@H]2CC[C@@H](C(=O)N3CC(C(=O)N4CCOCC4)C3)N2C1=O)c1cc2cc(C(F)(F)P(=O)(O)O)ccc2s1` [Compound 277, (difluoro(2-(((5S,8S,10aR)-8-(3-(morpholine-4-carbonyl)azetidine-1-carbonyl)-6-oxo-3-(2,2,2-trifluoroethyl)decahydropyrrolo[1,2-a][1,5]diazocin-5-yl)carbamoyl)benzo[b]thiophen-5-yl)methyl)phosphonic acid]: the IC50 in assay [1] was 3000 to 30000 nM; in assay [2], no more than 100 nM.
On the same counts, the results for `CC(=O)N1CC[C@H]2CC[C@@H](C(=O)N(C)c3ccc(C(F)F)cc3)N2C(=O)[C@@H](NC(=O)c2cc3cc(C(F)(F)P(=O)(O)O)ccc3s2)C1` [Compound 202, ((2-(((5S,8S,10aR)-3-acetyl-8-((4-(difluoromethyl)phenyl)(methyl)carbamoyl)-6-oxodecahydropyrrolo[1,2-a][1,5]diazocin-5-yl)carbamoyl)benzo[b]thiophen-5-yl)difluoromethyl)phosphonic acid] are 300 to 3000 nM and 1000 to 10000 nM.
On the same counts, the results for `CC(=O)N1CC[C@H]2CC[C@@H](C(=O)N3C[C@@H](C#N)[C@@H]3c3ccccc3)N2C(=O)[C@@H](NC(=O)c2cc3cc(C(F)(F)P(=O)(O)O)ccc3s2)C1` (relative stereo) [Compound 204, ((2-(((5S,8S,10aR)-3-acetyl-8-((rel-trans)-3-cyano-2-phenylazetidine-1-carbonyl)-6-oxodecahydropyrrolo[1,2-a][1,5]diazocin-5-yl)carbamoyl)benzo[b]thiophen-5-yl)difluoromethyl)phosphonic acid] are 300 to 3000 nM and 100 to 1000 nM.
For `CC(=O)N1CC[C@H]2CC[C@@H](C(=O)N(C)[C@H]3CN(C(C)=O)C[C@@H]3O)N2C(=O)[C@@H](NC(=O)c2cc3cc(C(F)(F)P(=O)(O)O)ccc3s2)C1` [Compound 183, ((2-(((5S,8S,10aR)-3-acetyl-8-(((3S,4S)-1-acetyl-4-hydroxypyrolidin-3-yl)(methyl)carbamoyl)-6-oxodecaohydrpyrrolo[1,2-a][1,5]diazocin-5-yl)carbamoyl)benzo[b]thiophen-5-yl)difluoromethyl)phosphonic acid], the results for the IC50 in assay [1] and in assay [2] were 300 to 3000 nM and 1000 to 10000 nM, respectively.
For `CC(=O)N1CC[C@H]2CC[C@@H](C(=O)N3C[C@H](C#N)C[C@@H]3Cc3ccccc3)N2C(=O)[C@@H](NC(=O)c2cc3cc(C(F)(F)P(=O)(O)O)ccc3s2)C1` [Compound 43, ((2-(((5S,8S,10aR)-3-acetyl-8-((2R,4R)-2-benzyl-4-cyanopyrrolidine-1-carbonyl)-6-oxodecahydropyrrolo[1,2-a][1,5]diazocin-5-yl)carbamoyl)benzo[b]thiophen-5-yl)difluoromethyl)phosphonic acid] the same measures were 300 to 3000 nM and 1000 to 10000 nM.
On the same counts, the results for `O=C(N[C@H]1CCN(CC(F)F)C[C@H]2CC[C@@H](C(=O)N3CC(c4cc[nH]c(=O)c4)CC34CC4)N2C1=O)c1ccc2ccc(C(F)(F)P(=O)(O)O)cc2c1` (stereo partly drawn) [Compound 234, ((7-(((5S,8S,10aR)-2-(2,2-difluoroethyl)-6-oxo-8-(6-(2-oxo-1,2-dihydropyridin-4-yl)-4-azaspiro[2.4]heptane-4-carbonyl)decahydropyrrolo[1,2-a][1,4]diazocin-5-yl)carbamoyl)naphthalen-2-yl)difluoromethyl)phosphonic acid] are no more than 300 nM and greater than 10000 nM.
Consider `CC(=O)N1CC[C@H]2CC[C@@H](C(=O)N(C)c3ccccc3)N2C(=O)[C@@H](NC(=O)c2ccc3cc(C(F)(F)P(=O)(O)O)ccc3c2)C1` [Compound 112, ((6-(((5S,8S,10aR)-3-acetyl-8-(methyl(phenyl)carbamoyl)-6-oxodecahydropyrrolo[1,2-a][1,5]diazocin-5-yl)carbamoyl)naphthalen-2-yl)difluoromethyl)phosphonic acid], for which the figures for the IC50 in assay [1] and in assay [2] were greater than 30000 nM and greater than 10000 nM, respectively.
As to `CC(=O)N1CC[C@H]2CC[C@@H](C(=O)N(C)Cc3ccccc3)N2C(=O)[C@@H](NC(=O)c2cc3cc(C(F)(F)P(=O)(O)O)ccc3[nH]2)C1` [Compound 54, ((2-(((5S,8S,10aR)-3-acetyl-8-(benzyl(methyl)carbamoyl)-6-oxodecahydropyrrolo[1,2-a][1,5]diazocin-5-yl)carbamoyl)-1H-indol-5-yl)difluoromethyl)phosphonic acid], the half-maximal inhibitory concentration (IC50) fell in the range of 300 to 3000 nM in assay [1] and 1000 to 10000 nM in assay [2].
For `CC(=O)N1CC[C@H]2CC[C@@H](C(=O)Nc3ccc4cnccc4c3)N2C(=O)[C@@H](NC(=O)c2cc3cc(C(F)(F)P(=O)(O)O)ccc3s2)C1` [Compound 158, ((2-(((5S,8S,10aR)-3-acetyl-8-(isoquinolin-6-ylcarbamoyl)-6-oxodecahydropyrrolo[1,2-a][1,5]diazocin-5-yl)carbamoyl)benzo[b]thiophen-5-yl)difluoromethyl)phosphonic acid], the IC50 is 300 to 3000 nM in assay [1] and 100 to 1000 nM in assay [2].
For the molecule `COC(=O)[C@@H]1CN(C(=O)[C@@H]2CC[C@@H]3CCN(CC(F)F)C[C@H](NC(=O)c4cc5cc(C(F)(F)P(=O)(O)O)ccc5s4)C(=O)N32)C[C@H]1c1ccccc1` (single isomer, unassigned) [Compound 247, ((2-(((5S,8S,10aR)-3-(2,2-difluoroethyl)-8-((3S,4R or 3R,4S)-3-(methoxycarbonyl)-4-phenylpyrrolidine-1-carbonyl)-6-oxodecahydropyrrolo[1,2-a][1,5]diazocin-5-yl)carbamoyl)benzo[b]thiophen-5-yl)difluoromethyl)phosphonic acid], the IC50 in assay [1] was no more than 300 nM; in assay [2], 100 to 1000 nM.
For `C[C@H](C(=O)N1CC[C@H]2CC[C@@H](C(=O)N(C)c3ccccc3)N2C(=O)[C@@H](NC(=O)c2cc3cc(C(F)(F)P(=O)(O)O)ccc3[nH]2)C1)c1ccccc1` [Compound 216, (difluoro(2-(((5S,8S,10aR)-8-(methyl(phenyl)carbamoyl)-6-oxo-3-((S)-2-phenylpropanoyl)decahydropyrrolo[1,2 a][1,5]diazocin-5-yl)carbamoyl)-1H-indol-5-yl)methyl)phosphonic acid] the same measures were 300 to 3000 nM and 1000 to 10000 nM.
For `CC(=O)N1CC[C@H]2CC[C@@H](C(=O)Nc3ccc(-c4ccccc4)cc3Cc3nccs3)N2C(=O)[C@@H](NC(=O)c2cc3cc(C(F)(F)P(=O)(O)O)ccc3s2)C1` [Compound 196, ((2-(((5S,8S,10aR)-3-acetyl-6-oxo-8-((3-(thiazol-2-ylmethyl)-[1,1′-biphenyl]-4-yl)carbamoyl)decahydropyrrolo[1,2-a][1,5]diazocin-5-yl)carbamoyl)benzo[b]thiophen-5-yl)difluoromethyl)phosphonic acid] the same measures were 300 to 3000 nM and 100 to 1000 nM.
Regarding `CC(=O)N1CC[C@H]2CC[C@@H](C(=O)N(C)CC(C)(C)O)N2C(=O)[C@@H](NC(=O)c2cc3cc(C(F)(F)P(=O)(O)O)ccc3s2)C1` [Compound 91, ((2-(((5S,8S,10aR)-3-acetyl-8-((2-hydroxy-2-methylpropyl)(methyl)carbamoyl)-6-oxodecahydropyrrolo[1,2-a][1,5]diazocin-5-yl)carbamoyl)benzo[b]thiophen-5-yl)difluoromethyl)phosphonic acid], the figures for the half-maximal inhibitory concentration (IC50) in assay [1] and in assay [2] were 300 to 3000 nM and 1000 to 10000 nM, respectively.
